According to PubChem BioAssay AID1963424 (Molecular Pharmacology Branch, DTP, NCI, 2024):
pIC50: −log10 of the molar value.

System: 327498-153-R-J2-PDC complex spheroid growth, % test/control
Assay: Anticancer human tumor 327498-153-R-J2-PDC patient-derived uterine carcinosarcoma cell line growth inhibition [Asc]
Conditions: for pIC50: curve of first compound; for viability, T/C: stronger effect = lower value; active means viability on the fitted dose curve at most 10% of control; inactive means the rest
Protocol: Multicellular complex tumor spheroid response to apoptosis pathway targeting inhibitors Alrizomadlin, Pelcitoclax, and Dasminapant in combination with a variety of drugs and investigational agents in selected tumor cell lines
The MDM2 inhibitor alrizomadlin, the Bcl-2/Bcl-xL inhibitor pelcitoclax, and the IAPs inhibitor dasminapant were evaluated both individually and in combination with standard of care and investigational anticancer small molecules within a complex spheroid model of solid tumors. . Complex spheroids include a stromal component modeled by human endothelial cells (HUVEC) and fibroblasts modeled by human mesenchymal stem cells (MSCs). The concentration ranges selected for each drug and investigational agent were based upon clinically achievable concentrations if the clinical Cmax of the agent was known.
Compounds. The drugs and investigational agents: alrizomadlin (APG-115; NSC831270), pelcitoclax (APG-1252; NSC835773), dasminapant (APG-1387;NSC834197), TAK-243 (NSC785004), copanlisib (NSC809693), olaparib (NSC753686), talazoparib (NSC767125), cobimetinib (NSC 768068), eltanexor (KPT-8602, NSC 794443), abemaciclib (NSC 768073), sotorasib (NSC818433), adagrasib (NSC 831453), MRTX-1133 (NSC 836407), Iadademestat (ORY1001, NSC 806812), and RMC-4630 (NSC839698), were obtained from the NCI Developmental Therapeutics Program Chemical Repository. The FDA-approved anticancer drug set is available from the Developmental Therapeutics Program at https://dtp.cancer.gov/organization/dscb/obtaining/available plates.htm. […] The stock solutions were prepared in dimethyl sulfoxide (DMSO, Sigma-Aldrich, St. Louis, MO, cat. D2650) at 800-fold the tested concentration and stored at -70 degrees C prior to their use. All drugs and investigational agents were tested over a range starting from a high concentration at or near the clinical Cmax and decreasing in half-log increments. If the clinical Cmax for an agent had not been determined, the highest concentration tested was 10 microM.
The patient-derived cancer (PDC) cell lines include five colon adenocarcinomas: 186277-243-T-J2-PDC, 616215-338-R-J1-PDC, 439559-082-T-J2-PDC, 463943-066-T-J2-PDC, and 519858-162-T-J1-PDC; three pancreatic carcinomas: 323965-272-R-J2-PDC, 521955-158-R6-J3-PDC, and 521955-158-R2-J5-PDC; two uterine sarcomas: 327498-152-R-J2-PDC and 993429-296-R-J1-PDC; two rhabdomyosarcomas: 755483-174-R-J1-PDC and 772245-204-R-J1-PDC; two soft tissue sarcomas: 126254-015-R-J1-PDC and 494315-158-R-J1-PDC; two malignant fibrous histiocytomas: 317291-083-R-J1-PDC and 596521-263-R-J1-PDC; two breast carcinomas: 171881-019-R-J1-PDC and 885512-296-R-J2-PDC; and one ovarian carcinoma: 6556581-035-R-J-PDC were obtained from the NCI PDMR, (https://pdmr.cancer.gov). The established cell lines HSSY-2 synovial sarcoma (RRID:CVCL 8719), SYO-1 synovial sarcoma (RRID:CVCL_7146), MPNST malignant peripheral neural sheath tumor were obtained from the Sloan Kettering Institute. The following established cell lines were purchased from the American Type Culture Collection (ATCC, Manassas, VA), Sor the received from the NCI repository:, PANC-1 pancreatic carcinoma (CRL-1469, RRID:CVCL_0480), OVCAR-5 ovarian carcinoma (RRID:CVCL_1628), OVCAR-8 ovarian carcinoma (RRID:CVCL_1629), , MCF-7 breast carcinoma (CRL-12584, RRID:CVCL_0031), MDA-MB-231 breast carcinoma (CRL-12532, RRID:CVCL_0062), NCI-H1876 small cell lung carcinoma (CRL-5902, RRID:CVCL_1503), NCI-H510A small cell lung carcinoma (HTB-184, RRID:CVCL_1565), NCI-H1417 (CRL-5869, RRID:CVCL_1469), and NCI-H196 small cell lung carcinoma (CRL-5823, RRID:CVCL_1509). Dr. Peter Houghton (Greehey Children's Cancer Research Institute, University of Texas Health Science Center, San Antonio, TX) provided Rh-18 rhabdomyosarcoma (RRID:CVCL_1659). Pooled donor human umbilical vein endothelial cells (HUVEC, Lonza, cat. CC-2519) and human mesenchymal stem cells (hMSC, Lonza, cat. PT-2501) were purchased from Lonza (Walkersville, MD).
Cell Culture. […]
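Further: spheroids exposed to compound for 7 days after 3 days of growth.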
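Wherever viability, T/C is given: 100% = DMSO vehicle control wells.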

NC(=O)C(=Cn1cnc(-c2cc(C(F)(F)F)cc(C(F)(F)F)c2)n1)c1cncnc1 + CNC(C)C(=O)NC1CN(S(=O)(=O)c2cccc(S(=O)(=O)N3CCC4CCC(C(=O)NC(c5ccccc5)c5ccccc5)N4C(=O)C(NC(=O)C(C)NC)C3)c2)CCC2CCC(C(=O)NC(c3ccccc3)c3ccccc3)N2C1=O
active: viability, T/C (second compound 0.01 µM, first compound 0.3 µM) 1.73% | viability, T/C (second compound 0.0316 µM, first compound 0.0949 µM) 9.05% | viability, T/C (second compound 0.0316 µM, first compound 0.3 µM) 1.71% | viability, T/C (second compound 0.1 µM, first compound 0.3 µM) 1.32% | viability, T/C (second compound 0.316 µM, first compound 0.0949 µM) 9.52% | viability, T/C (second compound 0.316 µM, first compound 0.3 µM) 1.32% | viability, T/C (second compound 1 µM, first compound 0.0949 µM) 7.78% | viability, T/C (second compound 1 µM, first compound 0.3 µM) 1.13%
7.34: pIC50 (second compound 1 µM)
7.40: pIC50 (second compound 0.0316 µM)
7.41: pIC50 (second compound 0.01 µM)
7.39: pIC50 (second compound 0.1 µM) | pIC50 (second compound 0.316 µM)
inactive: viability, T/C (second compound 0.01 µM, first compound 0.000949 µM) 93% | viability, T/C (second compound 0.01 µM, first compound 0.003 µM) 111% | viability, T/C (second compound 0.01 µM, first compound 0.00949 µM) 84.5% | viability, T/C (second compound 0.01 µM, first compound 0.03 µM) 63% | viability, T/C (second compound 0.01 µM, first compound 0.0949 µM) 12.1% | viability, T/C (second compound 0.0316 µM, first compound 0.000949 µM) 90.1% | viability, T/C (second compound 0.0316 µM, first compound 0.003 µM) 91.5% | viability, T/C (second compound 0.0316 µM, first compound 0.00949 µM) 88% | viability, T/C (second compound 0.0316 µM, first compound 0.03 µM) 63.8% | viability, T/C (second compound 0.1 µM, first compound 0.000949 µM) 92.8% | viability, T/C (second compound 0.1 µM, first compound 0.003 µM) 94.4% | viability, T/C (second compound 0.1 µM, first compound 0.00949 µM) 85.8% | viability, T/C (second compound 0.1 µM, first compound 0.03 µM) 65.4% | viability, T/C (second compound 0.1 µM, first compound 0.0949 µM) 9.53% | viability, T/C (second compound 0.316 µM, first compound 0.000949 µM) 91.9% | viability, T/C (second compound 0.316 µM, first compound 0.003 µM) 91.8% | viability, T/C (second compound 0.316 µM, first compound 0.00949 µM) 88.4% | viability, T/C (second compound 0.316 µM, first compound 0.03 µM) 65% | viability, T/C (second compound 1 µM, first compound 0.000949 µM) 102% | viability, T/C (second compound 1 µM, first compound 0.003 µM) 92.1% | viability, T/C (second compound 1 µM, first compound 0.00949 µM) 82.2% | viability, T/C (second compound 1 µM, first compound 0.03 µM) 75.2%
